Source: patent US7396837B2, “Antitumoral analogs of lamellarins” (Pharma Mar, S.A.U., priority 2002, dated 2008)
Where two headings read alike, the source gives them in different places.

Key:
Format in all cases: cell-based
A-549 = assay: SRB colorimetric cell growth inhibition assay, A-549; conditions: Homo sapiens, A549, A-549; for GI50: GI=growth inhibition, read-out: GI50 A-549; for CC50: cell killing (cytotoxic effect), read-out: LC50 A-549; for IC (TGI): total growth inhibition (cytostatic effect), read-out: TGI A-549
Source text: (§1) The finality of these assays is to interrupt the growth of an “in vitro” tumor cell culture by means a continued exhibition of the cells to the sample to be testing.
(§2) A colorimetric type of assay, using sulforhodamine B (SRB) reaction has been adapted for a quantitative measurement of cell growth and viability (following the technique described by P. A. Skehan, et al., J. Natl. Cancer Inst. 1990, 82, 1107-1112).
(§3) This form of assay employs 96 well cell culture microplates of 9 mm diameter (T. Mosmann et al., J. of Immunological Methods 1983, 65, 55-63; G. T. Faircloth et al., J. of Tissue and Culture Methods 1988, 11, 201-205).
(§4) Most of the cell lines are obtained from American Type Culture Collection (ATCC) derived from different human cancer types.
(§5) The values for mean +/− SD of data from triplicate wells are calculated. Some parameters for cellular responses can be calculated: GI=growth inhibition, TGI=total growth inhibition (cytostatic effect) and LC=cell killing (cytotoxic effect).

SK-MEL-28 = assay: SRB colorimetric cell growth inhibition assay, SK-MEL-28; conditions: Homo sapiens, SK-MEL-28, MEL-28
Source text: as §1, §2, §3, §4, §5

HT-29 = assay: SRB colorimetric cell growth inhibition assay, HT-29; conditions: Homo sapiens; for CC50: cell killing (cytotoxic effect), read-out: LC50 HT-29; for GI50: GI=growth inhibition, read-out: GI50 HT-29; for IC (TGI): total growth inhibition (cytostatic effect), read-out: TGI HT-29
Source text: as §1, §2, §3, §4, §5

LoVo = assay: SRB colorimetric cell growth inhibition assay, LoVo; conditions: Homo sapiens; for CC50: cell killing (cytotoxic effect), read-out: LC50 LOVO; for GI50: GI=growth inhibition, read-out: GI50 LOVO; for IC (TGI): total growth inhibition (cytostatic effect), read-out: TGI LOVO
Source text: as §1, §2, §3, §4, §5

LoVo-Dox = assay: SRB colorimetric cell growth inhibition assay, LoVo-Dox (MDR); conditions: Homo sapiens, LOVO-DOX; for GI50: GI=growth inhibition, read-out: GI50 LOVO-DOX; for CC50: cell killing (cytotoxic effect), read-out: LC50 LOVO-DOX; for IC (TGI): total growth inhibition (cytostatic effect), read-out: TGI LOVO-DOX
Source text: as §1, §2, §3, §4, §5

DU-145 = assay: SRB colorimetric cell growth inhibition assay, DU-145; conditions: Homo sapiens; for CC50: cell killing (cytotoxic effect), read-out: LC50 DU-145; for GI50: GI=growth inhibition, read-out: GI50 DU-145; for IC (TGI): total growth inhibition (cytostatic effect), read-out: TGI DU-145
Source text: as §1, §2, §3, §4, §5

LNCaP = assay: SRB colorimetric cell growth inhibition assay, LNCaP; conditions: Homo sapiens, LNCaP, LN-caP
Source text: as §1, §2, §3, §4, §5

SK-BR-3 = assay: SRB colorimetric cell growth inhibition assay, SK-BR-3; conditions: Homo sapiens; for CC50: cell killing (cytotoxic effect), read-out: LC50 SK-BR-3; for GI50: GI=growth inhibition, read-out: GI50 SK-BR-3; for IC (TGI): total growth inhibition (cytostatic effect), read-out: TGI SK-BR-3
Source text: as §1, §2, §3, §4, §5

IGROV = assay: SRB colorimetric cell growth inhibition assay, IGROV
Source text: as §1, §2, §3, §4, §5

IGROV-ET = assay: SRB colorimetric cell growth inhibition assay, IGROV-ET (ET-743 resistant); conditions: Homo sapiens, IGROV-ET; for GI50: GI=growth inhibition, read-out: GI50 IGROV-ET; for CC50: cell killing (cytotoxic effect), read-out: LC50 IGROV-ET; for IC (TGI): total growth inhibition (cytostatic effect), read-out: TGI IGROV-ET
Source text: as §1, §2, §3, §4, §5

HeLa = assay: SRB colorimetric cell growth inhibition assay, HeLa; conditions: Homo sapiens, HeLa; for GI50: read-out: GI50 HELA; for CC50: read-out: LC50 HELA; for IC (TGI): read-out: TGI HELA
Source text: as §1, §2, §3, §4, §5

HeLa-APL = assay: SRB colorimetric cell growth inhibition assay, HeLa-APL (aplidine resistant); conditions: Homo sapiens; for GI50: read-out: GI50 HELA-APL; for CC50: read-out: LC50 HELA-APL; for IC (TGI): read-out: TGI HELA-APL
Source text: as §1, §2, §3, §4, §5

PANC-1 = assay: SRB colorimetric cell growth inhibition assay, PANC-1; conditions: Homo sapiens; for CC50: cell killing (cytotoxic effect), read-out: LC50 PANC-1; for IC (TGI): total growth inhibition (cytostatic effect), read-out: TGI PANC-1; for GI50: GI=growth inhibition, read-out: GI50 PANC-1
Source text: as §1, §2, §3, §4, §5

K-562 = assay: SRB colorimetric cell growth inhibition assay, K-562; conditions: Homo sapiens, K562, K-562
Source text: as §1, §2, §3, §4, §5

[1] = Homo sapiens, IGROV; cell killing (cytotoxic effect); read-out: LC50 IGROV

CC[C@H](C)[C@H](NC(=O)OC(C)(C)C)C(=O)Oc1ccc(-c2c3c4cc(OC)c(OC(=O)[C@@H](NC(=O)OC(C)(C)C)[C@@H](C)CC)cc4oc(=O)c3n3ccc4cc(OC(=O)[C@@H](NC(=O)OC(C)(C)C)[C@@H](C)CC)c(OC)cc4c23)cc1OC [Compound 208]
GI50 (A-549): 8.78 µM
CC50 (A-549): 8.78 µM
IC (TGI) (A-549): 8.78 µM
GI50 (SK-MEL-28; GI=growth inhibition, read-out: GI50 MEL-28): 8.78 µM
CC50 (SK-MEL-28; cell killing (cytotoxic effect), read-out: LC50 MEL-28): 8.78 µM
IC (TGI) (SK-MEL-28; total growth inhibition (cytostatic effect), read-out: TGI MEL-28): 8.78 µM
CC50 (HT-29; HT-29, HT-29): 8.78 µM
GI50 (HT-29; HT-29): 8.78 µM
IC (TGI) (HT-29; HT-29): 8.78 µM
CC50 (LoVo; LoVo): 8.78 µM
GI50 (LoVo; LOVO): 8.78 µM
IC (TGI) (LoVo; LOVO): 8.78 µM
GI50 (LoVo-Dox): 8.78 µM
CC50 (LoVo-Dox): 8.78 µM
IC (TGI) (LoVo-Dox): 8.78 µM
CC50 (DU-145; DU-145, DU-145): 8.78 µM
GI50 (DU-145; DU-145): 8.78 µM
IC (TGI) (DU-145; DU-145): 8.78 µM
GI50 (LNCaP; GI=growth inhibition, read-out: GI50 LN-caP): 1.46 µM
CC50 (LNCaP; cell killing (cytotoxic effect), read-out: LC50 LN-caP): 5.83 µM
IC (TGI) (LNCaP; total growth inhibition (cytostatic effect), read-out: TGI LN-caP): 2.91 µM
CC50 (SK-BR-3; SK-BR-3, SK-BR-3): 8.78 µM
GI50 (SK-BR-3; SK-BR-3): 5.01 µM
IC (TGI) (SK-BR-3; SK-BR-3): 7.97 µM
CC50 (IGROV; [1]): 8.78 µM
GI50 (IGROV; Homo sapiens; IGROV; GI=growth inhibition; read-out: GI50 IGROV): 8.78 µM
IC (TGI) (IGROV; Homo sapiens; IGROV; total growth inhibition (cytostatic effect); read-out: TGI IGROV): 8.78 µM
GI50 (IGROV-ET): 8.78 µM
CC50 (IGROV-ET): 8.78 µM
IC (TGI) (IGROV-ET): 8.78 µM
GI50 (HeLa): 0.208 µM
CC50 (HeLa): 2.31 µM
IC (TGI) (HeLa): 0.618 µM
GI50 (HeLa-APL): 0.154 µM
CC50 (HeLa-APL): 1.14 µM
IC (TGI) (HeLa-APL): 0.385 µM
CC50 (PANC-1; PANC-1, PANC-1): 8.78 µM
IC (TGI) (PANC-1; PANC-1, PANC-1): 8.78 µM
GI50 (PANC-1; PANC-1): 5.92 µM

C=CCOC(=O)N[C@@H](C)C(=O)Oc1ccc(-c2c3c4cc(OC)c(OC(=O)[C@H](C)NC(=O)OCC=C)cc4oc(=O)c3n3ccc4cc(OC(=O)[C@H](C)NC(=O)OCC=C)c(OC)cc4c23)cc1OC [Compound 210]
GI50 (K-562; GI=growth inhibition, read-out: GI50 K-562): 0.612 µM
CC50 (K-562; cell killing (cytotoxic effect), read-out: LC50 K-562): 6.17 µM
IC (TGI) (K-562; total growth inhibition (cytostatic effect), read-out: TGI K-562): 2.13 µM
GI50 (A-549): 0.477 µM
CC50 (A-549): 10.4 µM
IC (TGI) (A-549): 3.94 µM
GI50 (HT-29; HT-29, HT-29): 7.09 µM
CC50 (HT-29; HT-29, HT-29): 10.4 µM
IC (TGI) (HT-29; HT-29, HT-29): 10.4 µM
GI50 (LoVo; LoVo): 2.05 µM
CC50 (LoVo; LoVo): 7.76 µM
IC (TGI) (LoVo; LoVo): 3.99 µM
GI50 (LoVo-Dox): 2.43 µM
CC50 (LoVo-Dox): 10.4 µM
IC (TGI) (LoVo-Dox): 6.04 µM
GI50 (DU-145; DU-145, DU-145): 0.181 µM
CC50 (DU-145; DU-145, DU-145): 0.631 µM
IC (TGI) (DU-145; DU-145, DU-145): 0.339 µM
GI50 (SK-BR-3; SK-BR-3, SK-BR-3): 0.397 µM
CC50 (SK-BR-3; SK-BR-3, SK-BR-3): 4.59 µM
IC (TGI) (SK-BR-3; SK-BR-3, SK-BR-3): 1.36 µM
GI50 (IGROV; Homo sapiens, IGROV; GI=growth inhibition; read-out: GI50 IGROV): 0.317 µM
CC50 (IGROV; [1]): 3.65 µM
IC (TGI) (IGROV; Homo sapiens, IGROV; total growth inhibition (cytostatic effect); read-out: TGI IGROV): 1.06 µM
GI50 (IGROV-ET): 0.145 µM
CC50 (IGROV-ET): 0.92 µM
IC (TGI) (IGROV-ET): 0.366 µM
GI50 (HeLa; GI=growth inhibition): 0.611 µM
CC50 (HeLa; cell killing (cytotoxic effect)): 10.4 µM
IC (TGI) (HeLa; total growth inhibition (cytostatic effect)): 5.54 µM
GI50 (HeLa-APL; HELA-APL, GI=growth inhibition): 0.516 µM
CC50 (HeLa-APL; HELA-APL, cell killing (cytotoxic effect)): 10.4 µM
IC (TGI) (HeLa-APL; HELA-APL, total growth inhibition (cytostatic effect)): 3.08 µM
GI50 (PANC-1; PANC-1, PANC-1): 0.398 µM
CC50 (PANC-1; PANC-1, PANC-1): 4.87 µM
IC (TGI) (PANC-1; PANC-1, PANC-1): 1.51 µM
